What all share (format): cell-based, Staphylococcus aureus
One experiment deals with S. aureus USA#18. As to the kind of experiment: Activity II bioassay (anti-PBP2' action), agar well diffusion with methicillin 10 μg/ml. The note with it: for activity II: pure compound at 1 mg/ml. An excerpt: (§1) Activities I (inhibitory/killing actions against bacteria), II (anti-PBP2' action) and III (action against β-lactamase) were quantitated by bioassay, using large plates (14 cm diameter circular, or 25×25 cm square) containing IsoSensitest agar (Unipath CM 471) to a depth of about 4 mm. surface-seeded with S. aureus. Assay strains and additions to agar varied according to the activity being assayed (Table 4).
(§2) 6 mm wells were cut into the agar and filled with appropriate dilutions (in duplicate) of solutions of the material to be assayed. Following overnight incubation, diameters of inhibition zones were measured, and plots made of (log concentration) vs zone diameter. MNIC was calculated by extrapolating the regression line to zone diameter=6 mm; it was expressed ether as a concentration (μg/ml) or an activity (reciprocal of concentration in mg/ml).
Background: A growth-free zone around the sample is the usual read-out of agar diffusion tests.

For the next experiment, the system named is S. aureus Oxford. Put plainly: Activity I bioassay (inhibitory/killing action), agar well diffusion. The note with it: pure compound at 1 mg/ml.
Text: as §1, §2

In the next experiment the test system is MSSA. As to the kind of experiment: MIC of benzylpenicillin in presence and absence of tea extract, MSSA (activity III). The procedure:
(§3) Strains were grown overnight at 37° C. in IsoSensitest™ broth (ISB, Unipath CM 473), and 1 μl amounts (c. 10^6 colony forming units (cfu) were inoculated on to six series of plates of IsoSensitest™ agar containing doubling dilutions of methicillin (1024- 1 μg/ml) alone and in the presence of tea extract in various sub-inhibitory concentrations, viz final dilutions of 1/40, 1/70, 1/100, 1/200 and 1/300.
(§4) Plates were incubated at 30° for 48 h. The minimum inhibitory concentration (MIC) of antibiotic was calculated for each sample, as a measure of activity II.
The 40 strains tested in Examples 1 and 2 above, together with 9 strains of methicillin-sensitive Staph. aureus (MSSA) were tested for their resistance to benzylpenicillin in the presence or absence of tea extract, with a view to measuring activity III. The procedures used were those described in Example 1, except that benzylpenicillin replaced methicillin. Both MSSA and MRSA have natural resistance to benzylpenicillin through the production of β-lactamase.

Experiment [1] relates to high level MRSA (20 strains of MRSA). As to the kind of experiment: MIC of methicillin alone and in presence of tea extract, agar dilution, high level MRSA (activity II). Conditions: strain no. is first number of line. The procedure:
A 2% extract of crushed leaf Japanese "Sencha" tea was made in boiling water, and filtered through a Millipore filter. This extract contains about 14.7 mg/ml of tea.
Sodium methicillin (SmithKline Beecham) and vancomycin hydrochloride (Lilly Industries) were Laboratory Reference preparation.
IsoSensitest agar (Unipath CM 471) was supplemented with 20 g NaCl/L.
as §3, §4
(In general: In agar dilution, organisms are placed on agar that contains the substance at set levels.)

A further experiment deals with low level MRSA. Put plainly: MIC of methicillin alone and in presence of tea extract, low level MRSA (activity II). Conditions: strain no. is first number of line. The procedure:
as §3, §4
A further 20 strains of low level MRSA were tested for activity II according to the procedures described in Example 1.

Another experiment deals with MRSA. As to the kind of experiment: Methicillin MIC in presence of sub-inhibitory vancomycin (control). The note with it: sub-inhibitory vancomycin in place of tea. The procedure:
A similar experiment was done using methicillin diluted in a series of sub-inhibitory concentrations of vancomycin, namely 0.5, 0.28, 0.2, 0.1 and 0.07 μg/l.
as §4

Where “and” joins values, the source holds several entries; their conditions need not be identical. Equal entries are not always repeated. Entries after “also recorded” stand apart in the source; their conditions may differ. Bounds are passed on as bounds.

For the molecule `Oc1cc(O)c2c(c1)O[C@H](c1cc(O)c(O)c(O)c1)[C@H](O)C2` [EGC, Epigallocatechin], the “activity II, pure compounds” value in the experiment with S. aureus USA#18 is “no activity II”.

Take `O=C(O[C@@H]1Cc2c(O)cc(O)cc2O[C@@H]1c1cc(O)c(O)c(O)c1)c1cc(O)c(O)c(O)c1` [EGCG, epigallocatechin gallate]: in the experiment with S. aureus USA#18, the “activity II, pure compounds” value was “no activity II”.

For the molecule `Oc1cc(O)c2c(c1)O[C@H](c1ccc(O)c(O)c1)[C@H](O)C2` [Epicatechin, epicatechin], the “activity I” value with S. aureus Oxford is listed as “no evidence of activity I or II”. Further, the “activity II” value in the experiment on S. aureus USA#18 is on record as “no evidence of activity I or II”.

Turning to `O=c1c(O)c(-c2ccc(O)c(O)c2)oc2cc(O)cc(O)c12` [Quercitin, quercitin], the “activity II, pure compounds” value in the experiment on S. aureus USA#18 is on record as “no activity II”.

In general, MIC refers to the least concentration at which growth counts as inhibited. Consider `CC1(C)S[C@@H]2[C@H](NC(=O)Cc3ccccc3)C(=O)N2[C@H]1C(=O)O` [benzylpenicillin], for which the minimal inhibitory concentration (MIC) with MSSA (Staphylococcus aureus, 48 h, read-out: MIC of benzylpenicillin, alone, MSSA, strain no. is first number of line) was more than 512 µg/mL. Also, the “MIC of benzylpenicillin, alone” value with MSSA (strain no. is first number of line) is 512 µg/mL and 256 µg/mL.

Take `O=C(/C=C/c1ccc(O)c(O)c1)O[C@@H]1C[C@](O)(C(=O)O)C[C@@H](O)[C@H]1O` [chlorogenic acid]: the “activity I” value in the experiment with S. aureus Oxford was “no evidence of activity I or II”. Also, the “activity II” value in the experiment with S. aureus USA#18 is reported as “no evidence of activity I or II”.

As to `O=C(O)c1cc(O)c(O)c(O)c1` [gallic acid], the “activity I” value in the experiment with S. aureus Oxford is “no evidence of activity I or II”. The “activity II” value in the experiment with S. aureus USA#18 is given as “no evidence of activity I or II”.

Turning to `O=c1c(O)c(-c2ccc(O)cc2)oc2cc(O)cc(O)c12` [kaempferol], in the experiment on S. aureus USA#18, the “activity II, pure compounds” value was “no activity II”.

On to `COc1cccc(OC)c1C(=O)N[C@@H]1C(=O)N2[C@@H]1SC(C)(C)[C@@H]2C(=O)O` [methicillin], for which the “MIC of methicillin, alone” value is 512 µg/mL in experiment [1] (no tea); 32 µg/mL and 64 µg/mL with low level MRSA. Also, in experiment [1] (tea extract 1/300), the “MIC of methicillin, +T/300” value is 512 µg/mL.

`Cn1cnc2c1c(=O)[nH]c(=O)n2C` [theobromine]: in the experiment with S. aureus Oxford, the “activity I” value is listed as “no evidence of activity I or II”. In addition, the “activity II” value with S. aureus USA#18 is given as “no evidence of activity I or II”.

As to `Cn1c(=O)c2[nH]cnc2n(C)c1=O` [theophylline], the “activity I” value in the experiment with S. aureus Oxford is given as “no evidence of activity I or II”. For the same molecule, the “activity II” value in the experiment on S. aureus USA#18 was “no evidence of activity I or II”.

Regarding `CN[C@H](CC(C)C)C(=O)N[C@H]1C(=O)N[C@@H](CC(N)=O)C(=O)N[C@H]2C(=O)N[C@H]3C(=O)N[C@H](C(=O)N[C@H](C(=O)O)c4cc(O)cc(O)c4-c4cc3ccc4O)[C@H](O)c3ccc(c(Cl)c3)Oc3cc2cc(c3O[C@@H]2O[C@H](CO)[C@@H](O)[C@H](O)[C@H]2O[C@H]2C[C@](C)(N)[C@H](O)[C@H](C)O2)Oc2ccc(cc2Cl)[C@H]1O` [vancomycin], in the experiment on MRSA, the “effect of vancomycin on methicillin MIC / synergy” value was “no synergistic effect whatever; also recorded: no reduction in methicillin MIC”.

Values taken from patent US5879683A, “Antibacterial agent containing tea extract or active fraction thereof and β-lactam antibiotic” (priority 1994, dated 1999).
